Data as given in patent US20170081698A1, “SURVIVAL ASSAYS FOR METAKARYOTIC STEM CELLS” (priority 2014, published 2017).
Entries after “also recorded” stand apart in the source; their conditions may differ.

How the values were obtained:
[1] = system: HT-29 cells; experiment: Survival assay counting large colonies of HT-29 cells plated as single cells in T-flasks, with replating of surviving colonies; assay type: cell-based, human; conditions: for treatment level above which large colonies did not contain metakaryotic cells and did not grow further upon replating (mortal colonies): HT-29, concentration x duration of exposure; for nature of surviving colonies (metakaryotic cells, growth upon passaging): HT-29, appropriate concentrations and durations of exposure; for stem cell number, by fraction of treated cells giving large, growing immortal colonies: HT-29 and CAPAN-1 lines; for applicants' interpretation of selectivity (metakaryotic stem cells versus eukaryotic cells): HT-29 cell population; for number of immortal colonies: HT-29 cultures; for sensitivity of eukaryotic cells relative to metakaryotes to killing: cultures of cells derived from human tumors; for exposure period required to assure killing greater than 99% of metakaryotic stem cells: HT-29 or CAPAN-1 cell cultures, certain concentrations
Description: Large colonies visible to the eye and containing approximately 250 or more cells are enumerated manually or by an electronic colony counter adjusted to recognize colonies of these sizes.
As a practical tactic, the total number of large colonies (>250 cells) are counted and the number appearing on […] to untreated plates identifies the treatment as having killed either or both colonies arising from eukaryotic non-stem cells or from metakaryotic stem cells.
The assay, in one embodiment, involved plating single cells from an exponentially growing HT-29 cell culture in plastic T-flasks and counting the large colonies apparent five weeks after plating. Untreated control flasks provided the total number of immortal colonies and larger mortal colonies.

[2] = system: HT-29 cells; experiment: Microscopic cytology of bell shaped metakaryotic nuclei in treated HT-29 cells (Hoechst, DAPI, Feulgen staining); assay type: cell-based, human; conditions: for aspect of bell shaped nuclei of metakaryotic colonies at the end of treatment: HT-29 colony assay flasks; for condensation of chromatin in bell shaped metakaryotic nuclei: HT-29 cultures
[3] = system: Capan-1 cells; experiment: Microscopic cytology of bell shaped metakaryotic nuclei in treated Capan-1 cells; conditions: Capan-1, equal to or greater than 10 micromolar for about one or more weeks
[4] = HT-29, 10 micromolar for 24 hours beginning 24 hours after seeding

Cc1ccc(-c2cc(C(F)(F)F)nn2-c2ccc(S(N)(=O)=O)cc2)cc1 [Celecoxib]
treatment level above which large colonies did not contain metakaryotic cells and did not grow further upon replating (mortal colonies) [1]: higher than 10 micromolar weeks | reduction of the total number of large colonies ([1]; HT-29, two weeks beginning one day after transfer, ~2 to ~32 micromolar): about 10%

CC(=O)Nc1ccc(O)cc1 [acetaminophen]
nature of surviving colonies (metakaryotic cells, growth upon passaging) [1]: did not contain discernable metakaryotic cells nor were they capable of continued growth upon passaging | treatment level above which large colonies did not contain metakaryotic cells and did not grow further upon replating (mortal colonies) [1]: higher than 10 micromolar weeks | reduction of the total number of large colonies ([1]; HT-29, two weeks beginning one day after transfer, ~5 to ~25 micromolar): about 10% | effect of higher concentrations on cells ([1]; HT-29, two weeks, concentrations higher than the range of the figure): killed all cells | stem cell number, by fraction of treated cells giving large, growing immortal colonies [1]: reduction of stem cell number | applicants' interpretation of selectivity (metakaryotic stem cells versus eukaryotic cells) [1]: exterminated the metakaryotic stem cells but were not cytotoxic to the eukaryotic non-stem cells | number of immortal colonies [1]: reduce the number of immortal colonies | aspect of bell shaped nuclei of metakaryotic colonies at the end of treatment [2]: did not display recognizable deformed pyknotic aspects | condensation of chromatin in bell shaped metakaryotic nuclei [2]: do not induce the condensation of chromatin

O=C(O)CCCc1ccc(N(CCCl)CCCl)cc1 [chlorambucil]
surviving large colonies ([1]; HT-29, ~3000 cells per flask, one day exposure, greater than ~10 micromolar): reduced the surviving large colonies monotonically to zero without displaying a plateau | sensitivity of eukaryotic cells relative to metakaryotes to killing [1]: markedly more sensitive

COc1cc2c(c(OC)c1OC)-c1ccc(OC)c(=O)cc1[C@@H](NC(C)=O)CC2 [colchicine]
sensitivity of eukaryotic cells relative to metakaryotes to killing [1]: markedly more sensitive

C[C@H]1c2cccc(O)c2C(=O)C2=C(O)[C@]3(O)C(=O)C(C(N)=O)=C(O)[C@@H](N(C)C)[C@@H]3[C@@H](O)[C@@H]21 [doxycycline]
treatment level above which large colonies did not contain metakaryotic cells and did not grow further upon replating (mortal colonies) [1]: higher than 4 micromolar weeks | reduction of the total number of large colonies ([1]; HT-29, two weeks beginning one day after transfer, zero to ~10 micromolar): about 8%

CC(C)Cc1ccc(C(C)C(=O)O)cc1 (stereo not drawn) [ibuprofen]
number of immortal colonies [1]: reduce the number of immortal colonies | condensation of chromatin in bell shaped metakaryotic nuclei [2]: do not induce the condensation of chromatin

CN(C)C(=N)N=C(N)N [metformin]
further growth of remaining colonies upon trypsinized transfer ([1]; HT-29, 100, 200 and 400 micromolar, five weeks): do not demonstrate further growth | nature of surviving colonies (metakaryotic cells, growth upon passaging) [1]: did not contain discernable metakaryotic cells nor were they capable of continued growth upon passaging | treatment level above which large colonies did not contain metakaryotic cells and did not grow further upon replating (mortal colonies) [1]: > 200 micromolar weeks | further decrease in total large colony count ([1]; HT-29, treatment range ~200 to 2000 micromolar weeks): No further significant decrease | reduction of the total number of large colonies ([1]; HT-29, ~1000 cells per flask, treatment levels from zero to ~100 micromolar weeks): about 10% | stem cell number, by fraction of treated cells giving large, growing immortal colonies [1]: reduction of stem cell number | exposure period required to assure killing greater than 99% of metakaryotic stem cells [1]: not less than six | nuclear chromatin condensation in metakaryotic versus eukaryotic cell nuclei ([2]; 200-2000 micromolar-weeks): metakaryotic but not eukaryotic cell nuclei display nuclear chromatin condensation | aspect of bell shaped nuclei of metakaryotic colonies at the end of treatment [2]: displayed recognizable deformed aspects

COc1ccc2cc([C@H](C)C(=O)O)ccc2c1 [naproxen]
number of immortal colonies [1]: reduce the number of immortal colonies

O=c1[nH]c(=O)n([C@H]2C[C@H](O)[C@@H](CO)O2)cc1C(F)(F)F [trifluorothymidine]
effect on eukaryotic cells [1, 4]: kills nearly all eukaryotic cells | effect on survival of metakaryotic cells [1, 4]: no detectable effect | nature of surviving large colonies (metakaryotic cells, growth upon replating) ([1]; HT-29, 24 hour exposure, ~7 to 17 micromolar): immortal and displayed visible metakaryotic cells by the 64 cell colony forming stage; also recorded: contained metakaryotic cells and grew continuously upon replating; also recorded: contained metakaryotic cells upon microscopic inspection and demonstrated the ability to grow continuously upon passaging | applicants' interpretation of selectivity (metakaryotic stem cells versus eukaryotic cells) [1]: exterminated the eukaryotic cells in the HT-29 cell population studied but was not toxic to the metakaryotic stem cells | sensitivity of eukaryotic cells relative to metakaryotes to killing [1]: markedly more sensitive

COc1ccc(CCN(C)CCCC(C#N)(c2ccc(OC)c(OC)c2)C(C)C)cc1OC (stereo not drawn) [verapamil]
nature of surviving colonies (metakaryotic cells, growth upon passaging) [1]: did not contain discernable metakaryotic cells nor were they capable of continued growth upon passaging | stem cell number, by fraction of treated cells giving large, growing immortal colonies [1]: reduction of stem cell number | exposure period required to assure killing greater than 99% of metakaryotic stem cells [1]: not less than six | fluorescent structures in the cytoplasmic organelle of metakaryotic cells (dsDNA dyes Hoechst, DAPI) ([2]; HT-29, about one or more weeks of treatment): novel large bar structure; also recorded: bright blue fluorescent bars, crosses and more complex figures are observed | chromatin in bell shaped nuclei after Feulgen staining ([2]; HT-29, e.g. 10 micromolar for about one or more weeks): condensed into rope like structures | pyknotic bell shaped nuclei with condensed chromatin ([2]; HT-29 and CAPAN-1 cell cultures): dead (pyknotic) bell shaped metakaryotic cell nuclei; also recorded: pyknotic structures with bell shaped nuclei displaying grossly condensed chromatin structures | condensation of chromatin in bell shaped metakaryotic nuclei [2]: observed | nuclei of metakaryotic stem cells [3]: pyknotic nuclei

CC[C@]1(O)C[C@@H]2CN(CCc3c([nH]c4ccccc34)[C@@](C(=O)OC)(c3cc4c(cc3OC)N(C)[C@H]3[C@@](O)(C(=O)OC)[C@H](OC(C)=O)[C@]5(CC)C=CCN6CC[C@]43[C@@H]65)C2)C1 [vinblastine]
sensitivity of eukaryotic cells relative to metakaryotes to killing [1]: markedly more sensitive
